Assay results reported in patent US5143910A, “Piperaziniocephalosporins” (Shionogi & Co., Ltd., priority 1989, dated 1992).
≈ marks a conversion by molar mass, not a printed value. Like-named read-outs stand apart in the source and are kept apart here.

Key:
[1] = system: Pseudomonas aeruginosa ATCC 25619; experiment: MIC on agar plate by two fold dilution (Japan Society of Chemotherapy) against Pseudomonas aeruginosa ATCC 25619; type: cell-based; details: ATCC25619, P. aeruginosa ATCC 25619, in 0.01N-sodium hydrogen carbonate, read-out: minimal inhibitory concentration (MIC)
Text: By altering the groups with the followings, the activity varied as below (AT=2-amino-4-thiazolyl).

[2] = system: Pseudomonas aeruginosa SR 5018; experiment: MIC against ofloxacin resistant Pseudomonas aeruginosa SR 5018; type: cell-based
[3] = system: Pseudomonas aeruginosa SR 4967; experiment: ED50 against Pseudomonas aeruginosa SR 4967; type: in vivo; details: SR4967, mouse
[4] = system: Pseudomonas aeruginosa SR 24; experiment: 50% effective dose for preventing mouse from death caused by Pseudomonas aeruginosa SR 24; type: in vivo
Description: The 50% effective dose of compound (I) where R^1 is 2-(2-amino-4-thiazolyl)-2-(1-carboxy-1-methylethoxy)imino-acetamido, R^2 is hydrogen, R^3 is methyl, R^4 R^5 is 3,4-dihydroxybenzoyl, R^6 combined with Y^- is a negative charge, X is sulfur for preventing mouse from the death caused by Pseudomonas aeruginose SR 24 is 1.25 mg/kg.

[5] = safety test, intravenous injection, mouse; type: in vivo; details: dose up to 1 g/kg
[6] = antibacterial activity against clinically isolated Clostridium freundii; type: cell-based
[7] = system: Serratia marcescens A 13880; experiment: ED50 against Serratia marcescens A 13880; type: in vivo; details: A13880, mouse
Morgania morganii = experiment: antibacterial activity against clinically isolated Morgania morganii; type: cell-based
[8] = urinary and bile juice recovery after subcutaneous injection; type: in vivo; details: urine and bile, sc; during 2 hours after subcutaneous injection (20 mg/kg); read-out: urinary and bile juice recovery (total)
[9] = system: Pseudomonas aeruginosa SR 24; experiment: MIC against Pseudomonas aeruginosa SR 24; type: cell-based; details: SR24
[10] = safety test, intravenous injection, rabbit; type: in vivo; details: dose up to 1 g/kg
Enterobacter cloacae = experiment: antibacterial activity against clinically isolated Enterobacter cloacae; type: cell-based

CO[C@@]1(NC(=O)CSC(F)F)C(=O)N2C(C(=O)[O-])=C(C[N+]3(C)CCN(C(=O)c4ccc(O)c(O)c4)CC3)CO[C@@H]21 [No. 1]
MIC [1]: > 100 mg/L

C[N+]1(CC2=C(C(=O)[O-])N3C(=O)[C@@H](NC(=O)Cc4ccccc4)[C@H]3SC2)CCN(C(=O)c2ccc(O)c(O)c2)CC1 [No. 2]
MIC [1]: > 100 mg/L

CO/N=C(\C(=O)N[C@@H]1C(=O)N2C(C(=O)[O-])=C(C[N+]3(C)CCN(C(=O)c4ccc(O)c(O)c4)CC3)CS[C@H]12)c1csc(N)n1 [No. 3]
MIC [1]: 0.05 mg/L (≈ 0.0792 µM)

CO/N=C(\C(=O)N[C@@H]1C(=O)N2C(C(=O)[O-])=C(C[N+]3(C)CCN(CC(=O)c4ccc(O)c(O)c4)CC3)CS[C@H]12)c1csc(N)n1 [No. 6]
MIC [1]: 0.05 mg/L (≈ 0.0774 µM)

CC(C)(O/N=C(\C(=O)N[C@@H]1C(=O)N2C(C(=O)[O-])=C(C[N+]3(C)CCN(C(=O)c4ccc(O)c(O)c4)CC3)CS[C@H]12)c1csc(N)n1)C(=O)O [No. 8, 7β-[2-(2-amino-4-thiazolyl)-2-(1-carboxy-1-methylethoxyimino)acetamido]-3-[4-(3,4-dihydroxybenzoyl)-1-methylpiperazinio-1-yl]methyl-3-cephem-4-carboxylate]
MIC ([2]; SR5018, ofloxacin resistant Pseudomonas aeruginosa SR 5018): 0.05 mg/L (≈ 0.071 µM) | times more potent (MIC) than BO-1341 ([2]; vs 0.4 γ/ml of BO-1341, P. aeruginosa SR 5018): 8 times | times more potent (MIC) than E-1040 ([2]; vs 6.3 γ/ml of E-1040, P. aeruginosa SR 5018): 126 times | times more potent (MIC) than ceftazidime ([2]; vs 25 γ/ml of ceftazidime, P. aeruginosa SR 5018): 500 times | ED50 [3]: 4.91 mg/kg | ED50 ([4]; Pseudomonas aeruginosa, SR24, read-out: 50% effective dose for preventing mouse from death): 1.25 mg/kg | ED50 ([4]; SR24, mouse, Pseudomonas aeruginosa SR 24, read-out: ED50 (mouse)): 1.41 mg/kg | times more potent (ED50) than reference 3-(3,4-dihydroxybenzyl) compound ([4]; vs 3.4 mg/kg of the reference, P. aeruginosa SR 24): 2.4 times | times more potent (ED50) than reference 3-(dihydroxyphenylthiadiazolylthio)methyl compound ([4]; vs 16.3 mg/kg of the reference, P. aeruginosa SR 24): 11.6 times | death [5]: did not show death | antibacterial activity [6]: high antibacterial activity | ED50 [7]: 0.28 mg/kg | antibacterial activity (Morgania morganii): high antibacterial activity | dose excreted at 2 h [8]: 70.4% | MIC [9]: 0.1 mg/L (≈ 0.142 µM) | death [10]: did not show death | antibacterial activity (Enterobacter cloacae): high antibacterial activity

CC(C)(O/N=C(\C(=O)N[C@@H]1C(=O)N2C(C(=O)[O-])=C(C[N+]3(C)CCN(C(=O)c4ccc(O)c(O)c4Cl)CC3)CS[C@H]12)c1csc(N)n1)C(=O)O [No. 9, 7β-[2-(2-aminothiazol-4-yl)-2-(1-carboxy-1-methylethoxyimino)acetamido]-3-[4-(2-chloro-3,4-dihydroxybenzoyl)-1-methylpiperazinio-1-yl]methyl-3-cephem-4-carboxylate]
MIC [1]: 0.02 mg/L (≈ 0.0271 µM)

CC(C)(O/N=C(\C(=O)N[C@@H]1C(=O)N2C(C(=O)[O-])=C(C[N+]3(C)CCN(C(=O)c4cc(O)c(O)c(Cl)c4)CC3)CS[C@H]12)c1csc(N)n1)C(=O)O [No. 11]
MIC [1]: 0.02 mg/L (≈ 0.0271 µM)

CC(C)(O/N=C(\C(=O)N[C@@H]1C(=O)N2C(C(=O)[O-])=C(C[N+]3(C)CCN(C(=O)c4cc(O)c(O)cc4Cl)CC3)CS[C@H]12)c1csc(N)n1)C(=O)O [No. 12]
MIC [1]: 0.02 mg/L (≈ 0.0271 µM)

CC(C)(O/N=C(\C(=O)N[C@@H]1C(=O)N2C(C(=O)[O-])=C(C[N+]3(C)CCN(C(=O)c4cc(Cl)c(O)c(O)c4Cl)CC3)CS[C@H]12)c1csc(N)n1)C(=O)O [No. 13]
MIC [1]: 0.02 mg/L (≈ 0.0259 µM)

COc1cc(C(=O)N2CC[N+](C)(CC3=C(C(=O)[O-])N4C(=O)[C@@H](NC(=O)C(=NOC(C)(C)C(=O)O)c5csc(N)n5)[C@H]4SC3)CC2)ccc1O [No. 14]
MIC [1]: 3.1 mg/L (≈ 4.32 µM)

CC(C)(O/N=C(\C(=O)N[C@@H]1C(=O)N2C(C(=O)[O-])=C(C[N+]3(C)CCN(Cc4ccc(O)c(O)c4)CC3)CS[C@H]12)c1csc(N)n1)C(=O)O [No. 15]
MIC [1]: 0.1 mg/L (≈ 0.145 µM)

C=C(O/N=C(\C(=O)N[C@@H]1C(=O)N2C(C(=O)[O-])=C(C[N+]3(C)CCN(C(=O)c4ccc(O)c(O)c4)CC3)CS[C@H]12)c1csc(N)n1)C(=O)O [No. 17]
MIC [1]: 0.05 mg/L (≈ 0.0727 µM)
